Test results: patent US8415469B2, “Compounds and methods for kinase modulation, and indications therefor” (Plexxikon Inc., priority 2005, dated 2013)

Legend:
Format in all cases: biochemical
Pyk2 = molecular target: T1, Pyk2 (Homo sapiens, UniProt Q14289); experiment: AlphaScreen kinase assay, Pyk2; conditions: read-out: IC50, activity toward kinase Pyk2
T1 construct: purchased Upstate Biotechnology

c-Raf-1 = molecular target: T2, c-Raf-1 (Homo sapiens, UniProt P04049); experiment: AlphaScreen kinase assay, c-Raf-1; conditions: read-out: IC50, activity toward kinase c-Raf-1
T2 construct: purchased Upstate Biotechnology

B-Raf V600E = molecular target: T3, B-Raf V600E (Homo sapiens, UniProt P15056, V600E); experiment: AlphaScreen kinase assay, B-Raf V600E; conditions: read-out: IC50, activity toward kinase B-Raf V600E
T3 construct: P4254. pFastBacBD-CDC37 BRAF D437-K722-X, V600E; His6 with pFastBac HT leader (TEV site) (N); made in house; host or cells: Sf9 (baculovirus; chaperone CDC37 co-expressed)

Jnk3 = molecular target: T4, Jnk3 (Homo sapiens, UniProt P53779); experiment: AlphaScreen kinase assay, Jnk3; conditions: read-out: IC50, activity toward kinase Jnk3
T4 construct: purchased Upstate Biotechnology

FGFR1 = molecular target: T5, FGFR1 (Homo sapiens, UniProt P11362, C488A/C584S); experiment: AlphaScreen kinase assay, FGFR1; conditions: read-out: IC50, activity toward kinase FGFR
T5 construct: P1351.pET N6 BI-PTP FGFR A458-E765-X C488A, C584S; made in house; host or cells: E. coli (PTP1B co-expressed)

Kit = molecular target: T6, Kit (Homo sapiens, UniProt P10721); experiment: AlphaScreen kinase assay, Kit; conditions: read-out: IC50, activity toward kinase Kit
T6 construct: P1332.N6 BI PTP KIT M552-K948-X COD; His6 (N); made in house; host or cells: E. coli (PTP1B co-expressed)

B-Raf = molecular target: T7, B-Raf (Homo sapiens, UniProt P15056); experiment: AlphaScreen kinase assay, B-Raf; conditions: read-out: IC50, activity toward kinase B-Raf
T7 construct: purchased Upstate Biotechnology

Jnk1 = molecular target: T8, Jnk1 (Homo sapiens, UniProt P45983); experiment: AlphaScreen kinase assay, Jnk1; conditions: read-out: IC50, activity toward kinase Jnk1
T8 construct: purchased Upstate Biotechnology

Fms = molecular target: T9, Fms (Homo sapiens, UniProt P07333); experiment: AlphaScreen kinase assay, Fms; conditions: read-out: IC50, activity toward kinase Fms
T9 construct: purchased Upstate Biotechnology

Src = molecular target: T10, Src (Homo sapiens, UniProt P12931); experiment: AlphaScreen kinase assay, Src; conditions: read-out: IC50, activity toward kinase Src
T10 construct: P1144. pET-N6 BI-PTP SRC V86-L536-X; made in house

Ret = molecular target: T11, Ret (Homo sapiens, UniProt P07949); experiment: AlphaScreen kinase assay, Ret; conditions: read-out: IC50, activity toward kinase Ret
T11 construct: P1378.pET-SF BI-PTP RET H661-R1012 HIS; made in house
T11 sequence (P07949 with tags, fused parts or gaps): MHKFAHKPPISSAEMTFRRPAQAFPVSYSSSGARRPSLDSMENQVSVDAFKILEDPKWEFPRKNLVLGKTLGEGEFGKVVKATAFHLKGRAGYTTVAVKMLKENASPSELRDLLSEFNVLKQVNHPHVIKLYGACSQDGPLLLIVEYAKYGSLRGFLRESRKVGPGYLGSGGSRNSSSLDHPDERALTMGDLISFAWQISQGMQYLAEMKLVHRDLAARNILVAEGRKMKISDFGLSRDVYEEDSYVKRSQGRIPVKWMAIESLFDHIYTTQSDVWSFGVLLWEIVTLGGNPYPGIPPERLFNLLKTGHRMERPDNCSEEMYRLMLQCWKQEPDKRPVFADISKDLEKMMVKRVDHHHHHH

Flt1 = molecular target: T12, Flt1 (Homo sapiens, UniProt P17948); experiment: AlphaScreen kinase assay, Flt1; conditions: read-out: IC50, activity toward kinase Flt1
T12 construct: P1826.pETN6 BI-PTP FLT1 M799-D1165-X WT; His6 (N); made in house; host or cells: E. coli (PTP1B co-expressed)
T12 sequence (P17948 with tags, fused parts or gaps): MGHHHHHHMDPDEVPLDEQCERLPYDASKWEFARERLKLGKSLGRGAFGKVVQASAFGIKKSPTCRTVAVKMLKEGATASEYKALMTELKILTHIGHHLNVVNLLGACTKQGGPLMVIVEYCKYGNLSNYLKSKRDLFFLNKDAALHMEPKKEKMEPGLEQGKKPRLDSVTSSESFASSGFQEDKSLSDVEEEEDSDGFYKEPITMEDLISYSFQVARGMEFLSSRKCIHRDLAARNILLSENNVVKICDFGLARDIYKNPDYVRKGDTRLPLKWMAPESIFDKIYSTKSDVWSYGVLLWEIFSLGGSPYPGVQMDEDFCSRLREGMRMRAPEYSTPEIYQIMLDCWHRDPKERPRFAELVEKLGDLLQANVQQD

Kdr = molecular target: T13, Kdr (Homo sapiens, UniProt P35968); experiment: Z'-Lyte FRET kinase assay (Invitrogen), Kdr; conditions: read-out: IC50, activity toward kinase Kdr
T13 construct: purchased Invitrogen (assay run by Invitrogen)

T5 sequence (P11362 458-765 C488A/C584S): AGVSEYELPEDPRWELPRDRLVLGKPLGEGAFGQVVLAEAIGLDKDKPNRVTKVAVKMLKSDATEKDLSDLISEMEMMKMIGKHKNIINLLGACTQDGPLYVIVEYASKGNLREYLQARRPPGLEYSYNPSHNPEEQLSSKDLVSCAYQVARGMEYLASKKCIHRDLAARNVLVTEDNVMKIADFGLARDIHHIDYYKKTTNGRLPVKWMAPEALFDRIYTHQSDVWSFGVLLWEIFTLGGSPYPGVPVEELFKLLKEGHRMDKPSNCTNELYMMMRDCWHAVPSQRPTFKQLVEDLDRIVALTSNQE
T1 sequence (Q14289 whole entry): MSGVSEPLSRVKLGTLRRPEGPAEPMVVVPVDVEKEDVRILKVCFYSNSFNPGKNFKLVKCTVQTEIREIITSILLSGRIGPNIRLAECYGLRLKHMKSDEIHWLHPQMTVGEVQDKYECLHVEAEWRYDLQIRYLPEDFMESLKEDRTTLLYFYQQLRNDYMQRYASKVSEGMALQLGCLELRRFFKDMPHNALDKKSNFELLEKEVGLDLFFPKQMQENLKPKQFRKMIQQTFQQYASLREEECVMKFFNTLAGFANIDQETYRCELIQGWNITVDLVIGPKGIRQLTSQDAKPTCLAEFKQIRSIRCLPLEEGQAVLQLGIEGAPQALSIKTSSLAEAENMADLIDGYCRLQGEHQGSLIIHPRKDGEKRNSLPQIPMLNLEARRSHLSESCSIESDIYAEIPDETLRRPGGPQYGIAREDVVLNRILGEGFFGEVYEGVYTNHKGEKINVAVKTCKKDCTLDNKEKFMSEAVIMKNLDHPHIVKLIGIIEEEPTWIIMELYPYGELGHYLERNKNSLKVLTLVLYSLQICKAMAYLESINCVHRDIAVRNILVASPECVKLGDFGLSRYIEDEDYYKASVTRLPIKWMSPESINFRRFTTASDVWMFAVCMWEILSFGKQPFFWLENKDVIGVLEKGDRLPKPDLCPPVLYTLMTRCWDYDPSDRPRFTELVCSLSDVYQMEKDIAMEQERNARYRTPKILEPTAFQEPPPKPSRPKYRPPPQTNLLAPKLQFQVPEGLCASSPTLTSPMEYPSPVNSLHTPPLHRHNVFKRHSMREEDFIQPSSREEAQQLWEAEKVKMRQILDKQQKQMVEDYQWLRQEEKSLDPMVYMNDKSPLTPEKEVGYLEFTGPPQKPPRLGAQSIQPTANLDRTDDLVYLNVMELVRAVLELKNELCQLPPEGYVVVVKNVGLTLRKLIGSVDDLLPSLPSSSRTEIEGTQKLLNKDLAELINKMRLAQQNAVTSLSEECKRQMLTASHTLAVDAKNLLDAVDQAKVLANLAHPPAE
T6 sequence (P10721 with tags, fused parts or gaps): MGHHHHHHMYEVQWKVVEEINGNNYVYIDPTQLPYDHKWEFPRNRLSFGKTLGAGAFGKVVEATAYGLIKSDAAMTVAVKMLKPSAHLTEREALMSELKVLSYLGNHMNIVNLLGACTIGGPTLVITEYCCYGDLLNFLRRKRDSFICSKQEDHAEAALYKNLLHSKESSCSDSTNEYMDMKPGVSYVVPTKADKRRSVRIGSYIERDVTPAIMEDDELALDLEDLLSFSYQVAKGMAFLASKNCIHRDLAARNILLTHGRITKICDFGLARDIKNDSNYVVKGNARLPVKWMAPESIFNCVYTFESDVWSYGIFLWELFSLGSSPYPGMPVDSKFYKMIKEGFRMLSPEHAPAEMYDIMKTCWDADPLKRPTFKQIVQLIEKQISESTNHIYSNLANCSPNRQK
T9 sequence (P07333 20-972): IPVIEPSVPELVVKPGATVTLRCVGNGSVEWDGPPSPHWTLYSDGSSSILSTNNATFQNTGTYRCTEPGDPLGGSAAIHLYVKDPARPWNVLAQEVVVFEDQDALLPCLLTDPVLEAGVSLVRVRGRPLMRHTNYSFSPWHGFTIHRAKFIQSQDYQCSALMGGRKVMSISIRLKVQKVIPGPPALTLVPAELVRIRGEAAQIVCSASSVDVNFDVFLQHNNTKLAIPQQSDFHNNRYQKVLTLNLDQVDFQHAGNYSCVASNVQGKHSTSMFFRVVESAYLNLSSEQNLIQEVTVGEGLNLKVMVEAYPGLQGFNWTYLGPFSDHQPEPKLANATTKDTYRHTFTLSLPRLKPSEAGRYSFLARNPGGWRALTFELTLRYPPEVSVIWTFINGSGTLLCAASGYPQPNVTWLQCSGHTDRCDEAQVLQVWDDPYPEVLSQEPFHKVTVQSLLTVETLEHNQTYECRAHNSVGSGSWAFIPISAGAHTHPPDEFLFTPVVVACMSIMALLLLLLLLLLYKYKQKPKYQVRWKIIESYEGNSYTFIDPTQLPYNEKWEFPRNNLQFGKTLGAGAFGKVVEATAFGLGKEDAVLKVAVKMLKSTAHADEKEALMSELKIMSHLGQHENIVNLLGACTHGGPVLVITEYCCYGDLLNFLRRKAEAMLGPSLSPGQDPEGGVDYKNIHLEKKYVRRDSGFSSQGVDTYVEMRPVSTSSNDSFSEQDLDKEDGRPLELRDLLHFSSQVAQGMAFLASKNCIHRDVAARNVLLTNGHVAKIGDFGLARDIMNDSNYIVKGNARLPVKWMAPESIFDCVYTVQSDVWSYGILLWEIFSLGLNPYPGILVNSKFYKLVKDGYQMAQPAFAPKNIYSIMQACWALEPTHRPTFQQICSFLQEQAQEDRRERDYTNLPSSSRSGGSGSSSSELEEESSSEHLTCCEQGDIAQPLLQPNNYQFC
T7 sequence (P15056 whole entry): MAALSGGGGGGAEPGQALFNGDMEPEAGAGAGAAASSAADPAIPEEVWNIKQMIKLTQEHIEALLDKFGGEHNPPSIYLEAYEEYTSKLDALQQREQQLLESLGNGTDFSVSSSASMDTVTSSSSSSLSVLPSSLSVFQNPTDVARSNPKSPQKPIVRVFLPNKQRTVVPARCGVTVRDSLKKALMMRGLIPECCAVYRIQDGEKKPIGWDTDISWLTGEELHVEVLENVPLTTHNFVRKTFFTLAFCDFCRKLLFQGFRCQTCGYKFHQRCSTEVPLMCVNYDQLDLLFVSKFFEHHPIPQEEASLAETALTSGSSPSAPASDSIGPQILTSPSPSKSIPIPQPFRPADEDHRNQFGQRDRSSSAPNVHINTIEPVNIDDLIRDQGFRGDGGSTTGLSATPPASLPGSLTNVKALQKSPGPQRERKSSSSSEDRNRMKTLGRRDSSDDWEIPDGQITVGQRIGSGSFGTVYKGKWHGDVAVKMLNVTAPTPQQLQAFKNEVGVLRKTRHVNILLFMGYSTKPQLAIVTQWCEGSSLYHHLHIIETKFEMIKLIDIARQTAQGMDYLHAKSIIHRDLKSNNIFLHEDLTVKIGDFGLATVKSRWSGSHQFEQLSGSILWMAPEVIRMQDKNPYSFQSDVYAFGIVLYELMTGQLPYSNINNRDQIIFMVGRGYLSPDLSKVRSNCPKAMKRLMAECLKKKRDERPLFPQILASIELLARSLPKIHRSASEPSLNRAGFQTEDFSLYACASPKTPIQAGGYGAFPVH
T2 sequence (P04049 whole entry): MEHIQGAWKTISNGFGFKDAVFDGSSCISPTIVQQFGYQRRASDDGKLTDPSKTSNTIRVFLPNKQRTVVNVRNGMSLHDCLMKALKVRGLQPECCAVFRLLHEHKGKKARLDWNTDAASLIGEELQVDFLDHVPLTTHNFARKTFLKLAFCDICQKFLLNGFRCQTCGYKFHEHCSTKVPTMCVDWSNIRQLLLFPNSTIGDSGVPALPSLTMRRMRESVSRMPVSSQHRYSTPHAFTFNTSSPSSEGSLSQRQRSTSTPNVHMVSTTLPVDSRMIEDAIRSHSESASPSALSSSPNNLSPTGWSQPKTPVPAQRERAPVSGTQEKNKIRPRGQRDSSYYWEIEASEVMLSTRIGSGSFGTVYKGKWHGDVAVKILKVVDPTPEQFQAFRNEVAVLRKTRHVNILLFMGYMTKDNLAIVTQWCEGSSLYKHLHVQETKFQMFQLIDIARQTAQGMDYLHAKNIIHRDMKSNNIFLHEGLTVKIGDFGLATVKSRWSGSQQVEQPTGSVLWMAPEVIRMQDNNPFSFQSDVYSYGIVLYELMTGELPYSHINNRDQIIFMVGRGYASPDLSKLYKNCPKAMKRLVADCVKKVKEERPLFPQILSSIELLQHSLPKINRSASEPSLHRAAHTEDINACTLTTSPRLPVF
T3 sequence (P15056 with tags, fused parts or gaps V600E): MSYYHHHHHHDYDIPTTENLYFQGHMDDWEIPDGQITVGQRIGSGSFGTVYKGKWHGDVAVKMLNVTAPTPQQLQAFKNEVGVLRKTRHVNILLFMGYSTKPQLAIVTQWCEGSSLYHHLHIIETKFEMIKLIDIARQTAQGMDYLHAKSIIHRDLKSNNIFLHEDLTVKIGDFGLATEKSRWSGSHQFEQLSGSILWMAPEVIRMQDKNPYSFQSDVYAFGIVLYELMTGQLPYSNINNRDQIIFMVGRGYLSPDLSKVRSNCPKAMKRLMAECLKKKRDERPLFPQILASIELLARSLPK
T10 sequence (P12931 with tags, fused parts or gaps): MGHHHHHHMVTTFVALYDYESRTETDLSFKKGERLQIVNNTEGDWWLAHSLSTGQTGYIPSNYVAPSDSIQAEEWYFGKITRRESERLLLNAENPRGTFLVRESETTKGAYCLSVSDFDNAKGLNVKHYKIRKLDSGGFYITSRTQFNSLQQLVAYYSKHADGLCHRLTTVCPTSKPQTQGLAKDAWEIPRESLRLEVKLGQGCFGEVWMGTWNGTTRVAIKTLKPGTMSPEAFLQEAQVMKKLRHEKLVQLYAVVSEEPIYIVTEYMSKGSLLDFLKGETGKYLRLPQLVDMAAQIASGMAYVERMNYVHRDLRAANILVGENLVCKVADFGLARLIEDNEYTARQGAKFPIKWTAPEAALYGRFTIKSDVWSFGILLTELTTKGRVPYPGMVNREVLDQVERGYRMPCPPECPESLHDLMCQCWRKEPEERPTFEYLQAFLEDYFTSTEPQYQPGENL

Row | IC50 (Pyk2) | IC50 (c-Raf-1) | IC50 (B-Raf V600E) | IC50 (Jnk3) | IC50 (FGFR1) | IC50 (Kit) | IC50 (B-Raf) | IC50 (Jnk1) | IC50 (Fms) | IC50 (Src) | IC50 (Ret) | IC50 (Flt1) | IC50 (Kdr) | SMILES
1 | ≤ 10 µM | ≤ 10 µM | ≤ 10 µM | – | – | – | – | – | – | – | – | – | – | CCCS(=O)(=O)Nc1ccc(F)c(C(OC)c2c[nH]c3ncc(-c4ccccc4)cc23)c1F (stereo not drawn) [Compound P-0957]
2 | ≤ 10 µM | – | – | ≤ 10 µM | – | – | – | – | – | – | – | – | – | Clc1ccccc1Nc1ccc2cc[nH]c2n1 [Compound P-1375, (2-Chloro-phenyl)-(1H-pyrrolo[2,3-b]pyridin-6-yl)-amine]
3 | ≤ 10 µM | – | – | – | ≤ 10 µM | ≤ 10 µM | – | – | – | – | – | – | – | CCCC(=O)Nc1ccc(F)c(C(O)c2c[nH]c3ncc(OC)cc23)c1F (stereo not drawn) [Compound P-1367]
4 | ≤ 10 µM | – | – | – | ≤ 10 µM | – | – | – | – | – | – | – | – | c1ccc(N2CCOCC2)c(Nc2ccc3cc[nH]c3n2)c1 [Compound P-1377, (2-Morpholin-4-yl-phenyl)-(1H-pyrrolo[2,3-b]pyridin-6-yl)-amine]
5 | ≤ 10 µM | ≤ 10 µM | ≤ 10 µM | – | ≤ 10 µM | ≤ 10 µM | – | – | – | – | – | – | – | CCCS(=O)(=O)Nc1ccc(F)c(Cc2c[nH]c3ncc(N4CCOCC4)cc23)c1F [Compound P-0964, Propane-1-sulfonic acid [2,4-difluoro-3-(5-morpholin-4-yl-1H-pyrrolo[2,3-b]pyridin-3-ylmethyl)-phenyl]-amide]
6 | ≤ 10 µM | ≤ 10 µM | ≤ 10 µM | – | ≤ 10 µM | ≤ 10 µM | ≤ 10 µM | ≤ 10 µM | ≤ 10 µM | ≤ 10 µM | – | – | – | CCCS(=O)(=O)Nc1ccc(F)c(C(=O)c2c[nH]c3ncc(Nc4ccccc4)cc23)c1F [Compound P-0848, propane-1-sulfonic acid [2,4-difluoro-3-(5-phenylamino-1H-pyrrolo[2,3-b]pyridine-3-carbonyl)-phenyl]-amide]
7 | ≤ 10 µM | – | ≤ 10 µM | – | ≤ 10 µM | – | – | – | ≤ 10 µM | – | – | – | – | NC(=O)c1cccc(-c2cnc3[nH]cc(Cc4ccccc4OCc4ccccc4)c3c2)c1 [Compound P-1381]
8 | ≤ 10 µM | ≤ 10 µM | ≤ 10 µM | – | – | – | ≤ 10 µM | – | – | – | – | – | – | COC(c1c(F)ccc(NS(=O)(=O)C(C)C)c1F)c1c[nH]c2ncc(Br)cc12 (stereo not drawn) [Compound P-0356, Propane-2-sulfonic acid {3-[(5-bromo-1H-pyrrolo[2,3-b]pyridin-3-yl)-methoxy-methyl]-2,4-difluoro-phenyl}-amide]
9 | ≤ 10 µM | ≤ 10 µM | ≤ 10 µM | – | ≤ 10 µM | ≤ 10 µM | ≤ 10 µM | – | ≤ 10 µM | – | – | – | – | CCCS(=O)(=O)Oc1ccc(F)c(C(=O)c2c[nH]c3ncc(Br)cc23)c1F [Compound P-0919, propane-1-sulfonic acid 3-(5-bromo-1H-pyrrolo[2,3-b]pyridine-3-carbonyl)-2,4-difluoro-phenyl ester]
10 | ≤ 10 µM | ≤ 10 µM | ≤ 10 µM | – | ≤ 10 µM | – | ≤ 10 µM | – | – | – | – | – | – | COC(c1c(F)ccc(NS(=O)(=O)C(C)C)c1F)c1c[nH]c2ncc(-c3cccnc3)cc12 (stereo not drawn) [Compound P-0947, Propane-2-sulfonic acid {2,4-difluoro-3-[methoxy-(5-pyridin-3-yl-1H-pyrrolo[2,3-b]pyridin-3-yl)-methyl]-phenyl}-amide]
11 | ≤ 10 µM | – | – | ≤ 10 µM | ≤ 10 µM | ≤ 10 µM | ≤ 10 µM | – | – | – | ≤ 10 µM | – | – | COc1cccc(Cc2c[nH]c3ncc(-c4ccc(C(N)=O)cc4)cc23)c1 [Compound P-0697]
12 | ≤ 10 µM | ≤ 10 µM | ≤ 10 µM | – | – | – | ≤ 10 µM | – | – | – | – | – | – | CCCS(=O)(=O)Nc1ccc(F)c(C(O)c2c[nH]c3ncc(-c4ccccc4)cc23)c1F (stereo not drawn) [Compound P-0946]
13 | ≤ 10 µM | ≤ 10 µM | ≤ 10 µM | – | ≤ 10 µM | ≤ 10 µM | ≤ 10 µM | – | ≤ 10 µM | ≤ 10 µM | – | – | – | CCCS(=O)(=O)Nc1ccc(F)c(C(=O)c2c[nH]c3ncc(-c4cccc(OC)c4)cc23)c1F [Compound P-0874, Propane-1-sulfonic acid {2,4-difluoro-3-[5-(3-methoxy-phenyl)-1H-pyrrolo[2,3-b]pyridine-3-carbonyl]-phenyl}-amide]
14 | ≤ 10 µM | – | ≤ 10 µM | – | – | ≤ 10 µM | – | – | ≤ 10 µM | – | – | – | – | CCCC(=O)Nc1ccc(F)c(C(OC)c2c[nH]c3ncc(OC)cc23)c1F (stereo not drawn) [Compound P-1368]
15 | ≤ 10 µM | – | – | – | – | – | – | – | – | – | – | ≤ 10 µM | – | Clc1cccc(Nc2ccc3cc[nH]c3n2)c1 [Compound P-1373, (3-Chloro-phenyl)-(1H-pyrrolo[2,3-b]pyridin-6-yl)-amine]
16 | ≤ 10 µM | – | – | – | – | – | – | – | – | – | ≤ 10 µM | – | – | CC(=O)c1cccc(-c2ccnc3[nH]ccc23)c1 [Compound P-0116]
17 | ≤ 10 µM | – | – | – | ≤ 10 µM | ≤ 10 µM | – | – | ≤ 10 µM | – | – | – | – | OC(c1ccccc1OCc1ccccc1)c1c[nH]c2ncc(Br)cc12 (stereo not drawn) [Compound P-1380]
18 | ≤ 10 µM | ≤ 10 µM | ≤ 10 µM | – | ≤ 10 µM | – | – | – | – | – | ≤ 10 µM | – | ≤ 10 µM | O=C(c1ccc(O)cc1Cl)c1c[nH]c2ncc(Br)cc12 [Compound P-0137]
19 | ≤ 10 µM | – | – | – | – | ≤ 10 µM | – | – | ≤ 10 µM | – | – | – | – | Cc1cc(Nc2ccc3cc[nH]c3n2)no1 [Compound P-1376, (5-Methyl-isoxazol-3-yl)-(1H-pyrrolo[2,3-b]pyridin-6-yl)-amine]
20 | ≤ 10 µM | – | ≤ 10 µM | – | – | ≤ 10 µM | – | ≤ 10 µM | ≤ 10 µM | – | – | ≤ 10 µM | – | CCCC(=O)Nc1ccc(F)c(C(=O)c2c[nH]c3ncc(OC)cc23)c1F [Compound P-1370]
21 | ≤ 10 µM | ≤ 10 µM | ≤ 10 µM | – | ≤ 10 µM | – | ≤ 10 µM | – | – | – | – | – | – | CCCS(=O)(=O)Nc1ccc(F)c(C(=O)c2c[nH]c3ncc(-c4ccc(C(F)(F)F)cc4)cc23)c1F [Compound P-0912, Propane-1-sulfonic acid {2,4-difluoro-3-[5-(4-trifluoromethyl-phenyl)-1H-pyrrolo[2,3-b]pyridine-3-carbonyl]-phenyl}-amide]
22 | ≤ 10 µM | ≤ 10 µM | ≤ 10 µM | – | ≤ 10 µM | ≤ 10 µM | ≤ 10 µM | – | ≤ 10 µM | ≤ 10 µM | – | – | – | CN(C)S(=O)(=O)Nc1ccc(F)c(C(=O)c2c[nH]c3ncc(-c4ccccc4)cc23)c1F [Compound P-0857]
23 | ≤ 10 µM | ≤ 10 µM | ≤ 10 µM | – | – | – | ≤ 10 µM | – | – | – | – | – | – | CCCS(=O)(=O)Nc1ccc(F)c(C(O)c2c[nH]c3ncc(Nc4ccccc4)cc23)c1F (stereo not drawn) [Compound P-0928]
24 | ≤ 10 µM | ≤ 10 µM | ≤ 10 µM | – | ≤ 10 µM | ≤ 10 µM | ≤ 10 µM | – | ≤ 10 µM | ≤ 10 µM | – | – | – | CN(C)S(=O)(=O)Nc1ccc(F)c(C(=O)c2c[nH]c3ncc(Br)cc23)c1F [Compound P-0898, Dimethylamine-1-sulfonic acid [3-(5-bromo-1H-pyrrolo[2,3-b]pyridine-3-carbonyl)-2,4-difluoro-phenyl]-amide]
